Columns and labels:
[1] = system: human umbilical vein endothelial cells (HUVEC); assay: HUVEC proliferation, [3H]thymidine incorporation; type: cell-based
Method: Human umbilical vein endothelial cells (“HUVEC”) were propagated in one of three growth media depending on the experimental conditions. HUVEC were maintained in endothelial basal medium (“EBM-2”) (Clonetics, Walkersville, Md.) supplemented with 2% FBS (Clonetics). HUVEC were also grown in endothelial growth medium (“EGM”) (Clonetics), which contained 3 mg/ml (protein content) bovine brain extract, 10 ng/ml EGF ([…]), 1 μg/ml hydrocortisone, 2% FBS, gentamicin, and amphotericin-B. HUVEC were likewise grown in EGM-2, supplemented with VEGF ([…]), R^3-IGF-1 (long recombinant-3 insulin-like growth factor-1), ascorbic acid, heparin, 2% FBS, EGF, bFGF, gentamicin, and amphotericin-B.
Based on the above in vitro tumor data, the effect of BN-50730 on tumor growth is believed to result from inhibition of angiogenesis. To test this theory, the effect of BN-50730 on angiogenesis of HUVEC cells was measured using two growth media designed to induce rapid proliferation, EGM or EGM-2. HUVEC growth was measured by [^3H]thymidine incorporation into DNA.
As many tumors are known to produce angiogenesis-inducing factors, an experiment was conducted to test for increased proliferation of HUVEC cells exposed to 201T-conditioned medium. 201T cells were allowed to condition basal medium (EBM supplemented with 2% FBS) for 48 hr. […] EGM-2 is a medium containing the growth factors bFGF, VEGF, IGF-1, and EGF.
To characterize the inhibitory effects of BN-50730 on HUVEC proliferation, a series of growth assays was performed in which growth factors were either added or omitted singly from the growth medium in the presence or absence of BN-50730. The cells were grown in a medium supplemented with [^3H]thymidine, in either the presence or absence of BN-50730. Cells that proliferate will incorporate [^3H]thymidine into their DNA. In the first experiment, individual growth factors VEGF, IGF-1, bFGF, or EGF were added to EBM-2 supplemented with 2% FBS. […] This experiment supports the hypothesis that different cellular mechanisms use different peptide growth factors.
In a subsequent experiment, mixtures of the growth factors were analyzed, with only one growth factor absent from the medium, and each of the other three were present, in the presence or absence of 10 μM BN-50730. […] However, no reduction was seen when bFGF was absent.

[2] = system: human 201T lung adenocarcinoma cells (orthotopic xenografts); assay: orthotopic 201T xenografts in nude mice, mediastinal block weight; type: in vivo, NCr athymic nude mice; settings: 60 mg/kg at days 2, 4, 6, 8, 10, 12, sacrifice day 56
Method: Pathogen-free 4 to 6 week-old male NCr athymic nude mice (Taconic, Germantown, N.Y.) were housed in sterilized, filter-topped cages kept in laminar flow isolators (Forma Scientific, Marietta, Ohio), and fed autoclaved food and water ad libitum. Four animals were housed in each cage. Mice were acclimated to the vivarium for one week prior to their use in study protocols. All procedures involving the mice were performed under sterile conditions in a laminar flow hood (Forma Scientific). All studies were approved by the institutional animal care and use committee.
Human PC-3 prostate cancer cells (2×10^6 cells; American Type Culture Collection CRL-1435) were inoculated subcutanteously into the flanks of nude mice in 0.1 ml HBSS (Hank's balanced salt solution) (Life Technologies). For implantation of orthotopic 201T cells, animals were fully anesthetized in a Harvard small animal anesthesia chamber using nebulized Metafane (Pitman Moore, Inc., Washington Crossing, N.J.). […] The needle was advanced through the chest wall into the lung tissue, and the tumor cell inoculum of 2×10^6 cells was then dispersed in a final volume of 0.1 ml HBSS/Matrigel (1:1 ratio). […] For tumors implanted subcutaneously, tumors were measured in a blind fashion with dial calipers, and the volume was calculated using the formula ½*π(W*L*H). […]

PC-3 cells = assay: in vitro cell growth assay, [3H]thymidine incorporation, PC-3; type: cell-based, human
Method: The human prostatic carcinoma cell line PC-3 was grown in RPMI 1640 (Life Technologies, Grand Island, […].) supplemented with 10% fetal bovine serum (“FBS”, Life Technologies). The human cell line 201T was established from a poorly differentiated lung adenocarcinoma, as previously described using the method of J. M. Siegfried et al., “Secretion of autocrine growth factors by cultured lung tumors: effects on neoplastic lung epithelial cells,” Lung Cancer, vol. 4, pp. 205–209 (1988). See also J. P. Hamide et al., “Percutaneous implantation of non-small cell lung carcinoma: technique and observations,” Academ. Radiolo., vol. 4, pp. 629–633 (1997). The cell line was grown in a medium conditioned for 48 hours by the cell line A549 (ATCC CCL-185) containing 1% FBS (HyClone Laboratories, Logan, Utah) as previously described in J. M. Siegfried, “Culture of primary lung tumors using medium conditioned by a lung carcinoma cell line,” J. Cell. Biochem., vol. 41, pp. 91–95 (1988). This medium is referred to as CM+1% FBS.
PC-3 cells were exposed to 0, 0.1, 1, 2.5, 5, and 10 μM BN-50730 in RPMI medium supplemented with 10% FBS and [^3H]thymidine (Amersham Life Science, Arlington Heights, Ill.). […] PC-3 and 201T cells were also exposed to 10 μM BN-50730 for 24, 48, 72 and 144 hours, and cell growth assessed as above. […]

COc1ccc(NC(=O)N2CCc3c(sc4c3C(c3ccccc3Cl)=NCc3nnc(C)n3-4)C2)cc1 [BN-50730, tetrahydro-4,7,8,10 methyl-1 (chloro-2 phenyl)-6 (methoxy-4 phenyl-carbomoyl)-9 pyrido [4′,3′-4,5] thieno [3,2-f] triazolo-1,2,4[4,3-α]diazepine-1,4]
HUVEC growth in EGM or EGM-2 medium ([1]; 5 μM, both growth conditions, p=0.001, Student's t-test): significantly reduced the growth of HUVEC | stimulation of HUVEC growth in 201T-conditioned medium or EGM-2 medium ([1]; 5 μM, either medium): inhibited | HUVEC growth in medium containing EGF as single growth factor ([1]; 10 μM, EBM-2 + 2% FBS + EGF): No difference | HUVEC growth in medium containing IGF-1 as single growth factor ([1]; 10 μM, EBM-2 + 2% FBS + IGF-1): No difference | HUVEC growth in medium containing VEGF as single growth factor ([1]; 10 μM, EBM-2 + 2% FBS + VEGF, p=0.036): small, but significant | HUVEC growth in medium containing bFGF as single growth factor ([1]; 10 μM, EBM-2 + 2% FBS + bFGF, p=0.0002): larger reduction | HUVEC growth in medium with bFGF absent ([1]; 10 μM, VEGF, IGF-1 and EGF present): no reduction | HUVEC growth in medium lacking only VEGF, IGF-1 or EGF ([1]; 10 μM, other three growth factors present): reduction in growth | mediastinal block weight, placebo-treated vs LAU-8080-treated ([2]; p=0.011, Student's t-test): significantly larger in placebo-treated animals | mediastinal weight vs control litter mates without tumor cell implantation ([2]; p=0.800, Student's t-test): the same as for control liter mates | PC-3 cell proliferation, time course (PC-3 cells; 10 μM at 1, 2, 3 or 6 days, p=0.556, F-test): no effect | PC-3 cell proliferation, concentration response (PC-3 cells; 0.01, 0.1, 1, 2.5, 5, 10 μM for 4 days, p=0.529 for 10 μM): not affected

Source: US6979682B2, “Platelet-activating factor antagonist inhibition of angiogenesis and tumor growth induced by basic fibroblast” (Board of Supervisors of Louisiana State University and …, priority 2001, dated 2005)
